Target: T1, human type II PLA2 (Homo sapiens, UniProt P14555)
T1 construct: made in house; host or cells: baculovirus system
T1 sequence (P14555 21-144): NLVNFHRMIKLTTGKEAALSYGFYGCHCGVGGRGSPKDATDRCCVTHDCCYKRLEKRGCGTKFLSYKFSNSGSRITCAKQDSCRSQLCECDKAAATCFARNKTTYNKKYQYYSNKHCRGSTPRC
Test: E. coli PLA2 assay (3H-oleic acid labeled E. coli as substrate)
Type: biochemical
Settings: compounds 33 and 34 assayed as a mixture at 100 μM, 50 μM, and 10 μM (final concentration)
Description: After each round of synthesis as described in the above examples, the resulting pools of compounds are screened for inhibition of human type II PLA2 enzymatic activity. The assay is effected at the conclusion of each round of synthesis to identify the wining pool from that round of synthesis. Concurrently, the libraries additionally can be screened in other in vitro assays to determine further mechanisms of inhibition.
The pools of the macrocyclic libraries are screened for inhibition of PLA2 in the assay using E. coli labeled with ^3H-oleic acid (Franson et al., J. Lipid Res. 1974, 15, 380; and Davidson et al., J. Biol. Chem. 1987, 262, 1698) as the substrate. Type II PLA2 (originally isolated from synovial fluid), expressed in a baculovirus system and partially purified, serves as a source of the enzyme. […] 165 μl of each supernate is then put into a scintillation vial containing 6 ml of scintillant (Scintiverse) and cpms are measured in a Beckman Liquid Scintillation Counter. […]
The compounds were assayed as a mixture at 100 μM, 50 μM, and 10 μM (final concentration). […] Duplicate assay values were averaged, background (no compound, no PLA2) was subtracted and the percentage of the positive control (no compound) was calculated.

Row | Substance | inhibitory activity in E. coli PLA2 assay
1 | 1,11,18,28-tetracarboxy-2,10,19,27-tetraaza-7,22-bis-(tosyl)aza-3,26-dioxa-[11.11]pyridinophane [compound 33] | showed inhibitory activity
2 | 1,11,18,28-tetracarboxy-2,10,19,27-tetraaza-7,24-bis-(tosyl)aza-3,20-dioxa-[11.11]pyridinophane [compound 34] | showed inhibitory activity
